Measurements reported in patent US20240052133A1, “CHEMICAL RECYLING OF PLASTICS USING IONIC LIQUIDS OR DEEP EUTECTIC SOLVENTS” (THE REGENTS OF THE UNIVERSITY OF CALIFORNIA, priority 2022, published 2024).
Where two headings read alike, the source gives them in different places.

Key:
[1] = pH of the reaction solution before and after IL catalyzed depolymerization; type: physicochemical; settings: for pH before reaction: IL systems 10 wt % in water, alkaline water adjusted with NaOH; for pH after reaction, PET: after depolymerization reaction of PET; for pH after reaction, PLA: after depolymerization reaction of PLA
Protocol: Hydrolytic depolymerization of PET and PLA involves chain scission of ester linkages, where a carboxyl end group is released. […] We hypothesized that the pH influenced by IL was the major driving force of PET and PLA depolymerization. To test the hypothesis, a set of control experiments were conducted using only water and alkaline water as the solvent. […] (with pH 11.8).

[2] = tested on: Pseudomonas putida KT2440; assay: Pseudomonas putida KT2440 cell growth test (OD600) with different carbon sources; type: cell-based; settings: for cell growth (cell concentration): synthetic solutions matching concentrations in the depolymerized polymers, versus 10 mM glucose control
Protocol: [38, 39, 44, 45]. […] This is likely due to the relatively high [Ch][Lys] concentration, where the [Ch][Lys] concentration is 4 wt %.
Due to the fact that the depolymerized PET/PLA comprises multiple carbon sources (e.g., TPA, LA, and [Ch][Lys]), it is essential to identify the major contributors for the cell growth. Two additional tests were performed. […] The depolymerized products were then diluted 20-fold to prepare the media for cell growth test. A media prepared with only [Ch][Lys] was used as the IL control.
To validate this hypothesis, a second cell growth test was conducted using synthetic TPA and LA as the media. TPA, LA, and TPA/LA mixture were prepared to match the concentrations in the depolymerized polymers. […] It can be concluded that Pseudomonas putida KT2440 is capable of catabolizing LA from depolymerized PLA and [Ch][Lys] as carbon sources, but lacks a natural metabolic pathway to consume TPA. So far, no natural terephthalate degradation pathway has been reported in Pseudomonas putida KT2440. This is consistent with our findings that TPA cannot support cell growth of Pseudomonas putida KT2440. A recent study has shown the success in engineering Pseudomonas putida KT2440 to catabolize TPA for different fermentation products. This opens the door to efficiently utilizing both TPA and LA from the depolymerized PET/PLA.
Pseudomonas putida KT2440 was inoculated as the seed culture at 30° C. overnight. The cell culture was spun down and washed with 3-(N-morpholino)propane sulfonic acid (MOPS) buffer for 5 times to remove the carbon sources. 1% cell resuspension was inoculated into 500 μL growth media in 48 well plates. The growth media included MOPS rich buffer (Teknova, #M2105) and 25 μg/mL Chloramphenicol, added with different carbon sources to support the cell growth (Table 4). Cell growths were monitored continuously at OD600 nm for 72-120 h in the plate reader (Biotek-Synergy, Y-H1) at 30° C., 570 rpm.

[3] = cited from earlier work
[4] = Hydrolytic depolymerization of PET using ILs in water
Protocol: (§1) Most of them are conventional imidazolium-based, including the ones that contain halometallates. With the progress in the IL research, economic and biocompatible cholinium-based ILs have attracted high interest.
(§2) […] […] The tube was immersed in a preheated oil bath at a desired temperature. Upon completion of the reaction, the tube was taken out from the oil bath and cooled to room temperature.
The reaction residue was transferred to a 50 mL falcon tube, where solid residue was recovered through centrifugation. The solid fraction was washed with 5 mL deionized water three times before being dried in a lyophilizer (Labconco, Kansas City, MO). The liquid fraction was sampled for product analysis. The depolymerization and product yield are defined as follows:
(§3) Depolymerization=Wsubstrate−W1Wsubstrate100%
(§4) Yield=Wproduct/MproductWsubstrate/Msubstrate×100%
(§5) Then 4 mM sulfuric acid was used as the mobile phase at a flow rate of 1.0 mL/min. The column oven temperature was maintained at 65° C.

[5] = Depolymerization of PET/PLA mixtures (1:1 mass ratio) using [Ch][Lys]; settings: 160° C.
Text: As discussed previously, the current waste management facilities will not completely eliminate the PLA contamination when sorting PET for recycling. […] Chemical recycling is an alternative to mechanical recycling in regard to dealing with PLA contaminants. […] Given its high catalytic activity, [Ch][Lys] was selected as the IL in the reaction. It should be emphasized that [Ch][Lys] is a favorable choice not only because of its high depolymerization efficiency but also because it is economic, biocompatible, less toxic, and environmentally friendly.
The initial set of experiments was carried out at 160° C. for two hours. As shown in FIG. 4A and FIG. 4B, the depolymerization efficiency varied across different IL loadings. […] Meanwhile, the TPA yield turned to be negligible (1.5%) and the LA yield was merely 40.9%. The reasons are manifold.
Although [Ch][Lys] is considered as cost-competitive compared to other conventional ILs, IL usage is often the major cost contributor in the process economics. In order to explore the way to reduce IL loading, a set of experiments was conducted by increasing the reaction time from 2 h to 6 h. Overall, reaction time extension improved both depolymerization and product yields at low IL loadings (FIG. 4A, FIG. 4B and FIG. 4C). […].
The depolymerization reaction of polyesters were conducted in a 15 mL pressure tube (Ace Glass Inc., Vineland, NJ) at […] for one hour. […] The tube was immersed in a preheated oil bath at a desired temperature. Upon completion of the reaction, the tube was taken out from the oil bath and cooled to room temperature.
(§6) The reaction residue was transferred to a 50 mL falcon tube, where solid residue was recovered through centrifugation. […] The liquid fraction was sampled for product analysis. The depolymerization and product yield are defined as follows:
as §3, §4
Terephthalic acid (TPA) and lactic acid (LA) were measured on a Thermo Scientific Ultimate 3000 HPLC (Waltham, MA, USA) equipped with a Bio-Rad Aminex HPX-87H column (300×7.8 mm, Hercules, CA, USA) and a Refractive Index (RI) detector. Then 4 mM sulfuric acid was used as the mobile phase at a flow rate of 1.0 mL/min. The column oven temperature was maintained at 65° C.

[6] = Hydrolytic depolymerization of PLA using ILs in water
Protocol: as §1, §2, §6, §3, §4, §5

[7] = 90 wt % IL loading (no water), 2 h
[8] = 130° C., 2 hours, 10% IL in water
[9] = 160° C., 20% [Ch][Lys] loading, 6 hours
[10] = 180° C., 2 hours, 10% IL in water

## CC(=O)[O-].CCn1cc[n+](C)c1 [[Emim][Ac], 1-ethyl-3-methylimidazolium acetate]
[1]
  pH before reaction: 7.1
  pH after reaction, PET: 6.8
  pH after reaction, PLA: 7.2

## O [Water]
[1]
  pH before reaction: 7.6
  pH after reaction, PET: 3.4
  pH after reaction, PLA: 3.4

## O=C(O)c1ccc(C(=O)O)cc1 [TPA, terephthalic acid]
[2]
  cell growth (cell concentration): No cell growth was observed
[3]; acidic pH
  solubility in water: insoluble
[3]; alkaline conditions
  solubility in water: water soluble

## CCn1cc[n+](C)c1.[Cl-] [[Emim]Cl, 1-ethyl-3-methylimidazolium chloride]
[1]
  pH before reaction: 6.4
  pH after reaction, PET: 4.5
  pH after reaction, PLA: 3.2

## C[N+](C)(C)CCO.O=C([O-])[C@H](O)[C@@H](O)[C@H](O)[C@H](O)CO [[Cholinium][Gluconate], cholinium gluconate]
[4]; another experiment, PET depolymerization
  TPA yield higher over [Ch][Lys]: 100%

## CC(O)C(=O)O (stereo not drawn) [LA, lactic acid]
[2]
  cell growth (cell concentration): higher than glucose control

## C[N+](C)(C)CCO.C[N+](C)(C)CCO.C[N+](C)(C)CCO.O=P([O-])([O-])[O-] [[Ch]3[Phos], cholinium phosphate]
[1]
  pH before reaction: 12.7
  pH after reaction, PET: 7.7
  pH after reaction, PLA: 8.1

## C[N+](C)(C)CCO.NCCCC[C@H](N)C(=O)[O-] [[Ch][Lys], cholinium lysinate]
[5]; 10 wt % IL loading, 2 h
  depolymerization efficiency of PET/PLA mixture: 50.8%
[5]; 45 wt % IL loading, 2 h
  LA yield from PET/PLA mixture: 93.8%
  TPA yield from PET/PLA mixture: 79.6%
[5]; 60 wt % IL loading, 2 h
  LA yield from PET/PLA mixture: 53.1%
  TPA yield from PET/PLA mixture: 77.2%
  depolymerization efficiency of PET/PLA mixture: 99.5%
[5]; [7]
  LA yield from PET/PLA mixture: 40.9%
  TPA yield from PET/PLA mixture: 1.5%
  depolymerization efficiency of PET/PLA mixture: 91.5%
[5]; 90 wt % IL loading, 6 h
  LA yield from PET/PLA mixture, change versus 2 h: decreased by half
  TPA yield from PET/PLA mixture: 1.6%
  depolymerization of PET/PLA mixture: 97.1%
[2]; media prepared with only [Ch][Lys] (IL control)
  cell growth: contributor to the cell growth
[6]; [8]
  LA yield (product yield from PLA): 39.3%
  depolymerization efficiency of PLA: 40.2%
[6]; [9]
  depolymerization of PLA: Up to 100%
[1]
  pH before reaction: 11.8
  pH after reaction, PET: 11.0
  pH after reaction, PLA: 11.1
[4]; [9]
  depolymerization of PET: Up to 100%
[4]; [10]
  TPA yield (product yield from PET): 44.5%
  depolymerization efficiency of PET: 52.7%
